Type in all cases: cell-based
One series deals with Nav 1.5 (Homo sapiens (Human), UniProt Q14524). The series is described as follows: Nav 1.5 in vitro assay, IonWorks Quattro (IWQ) population patch-clamp. The conditions noted are these: HEK 293 cells stably transfected with Nav 1.5; 26th pulse to -20 mV.
For series [1], the target named is T1, Nav 1.7 (Homo sapiens (Human), UniProt Q15858). The series is described as follows: Nav 1.7 in vitro PX assay, PatchXpress whole cell voltage clamp. The conditions noted are these: HEK 293 cells stably transfected with human Nav1.7; for IC50: partially inactivated state (20 to 50% inactivation). The method, boiled down:
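Partially inactivated channels (20–50% inactivation at holding potential) were probed on automated patch clamp in stably transfected HEK293 cells, stepping to −10 mV for 20 msec every 10 s (0.1 Hz).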

For series [2], the target named is T1, Nav 1.7. As to the kind of experiment: Nav 1.7 in vitro assay, IonWorks Quattro (IWQ) population patch-clamp. The conditions noted are these: HEK 293 cells stably transfected with Nav 1.7; 26th pulse to -20 mV. (Patch clamp records ionic current or voltage across a cell membrane.)

Broadly, the IC50 is the concentration at which inhibition is half-maximal. Low values mean inhibition by little substance, high ones a need for much substance. The term inhibition denotes the relative decrease from the control value, in per cent.

Sequence of Nav 1.5 (Q14524 whole entry): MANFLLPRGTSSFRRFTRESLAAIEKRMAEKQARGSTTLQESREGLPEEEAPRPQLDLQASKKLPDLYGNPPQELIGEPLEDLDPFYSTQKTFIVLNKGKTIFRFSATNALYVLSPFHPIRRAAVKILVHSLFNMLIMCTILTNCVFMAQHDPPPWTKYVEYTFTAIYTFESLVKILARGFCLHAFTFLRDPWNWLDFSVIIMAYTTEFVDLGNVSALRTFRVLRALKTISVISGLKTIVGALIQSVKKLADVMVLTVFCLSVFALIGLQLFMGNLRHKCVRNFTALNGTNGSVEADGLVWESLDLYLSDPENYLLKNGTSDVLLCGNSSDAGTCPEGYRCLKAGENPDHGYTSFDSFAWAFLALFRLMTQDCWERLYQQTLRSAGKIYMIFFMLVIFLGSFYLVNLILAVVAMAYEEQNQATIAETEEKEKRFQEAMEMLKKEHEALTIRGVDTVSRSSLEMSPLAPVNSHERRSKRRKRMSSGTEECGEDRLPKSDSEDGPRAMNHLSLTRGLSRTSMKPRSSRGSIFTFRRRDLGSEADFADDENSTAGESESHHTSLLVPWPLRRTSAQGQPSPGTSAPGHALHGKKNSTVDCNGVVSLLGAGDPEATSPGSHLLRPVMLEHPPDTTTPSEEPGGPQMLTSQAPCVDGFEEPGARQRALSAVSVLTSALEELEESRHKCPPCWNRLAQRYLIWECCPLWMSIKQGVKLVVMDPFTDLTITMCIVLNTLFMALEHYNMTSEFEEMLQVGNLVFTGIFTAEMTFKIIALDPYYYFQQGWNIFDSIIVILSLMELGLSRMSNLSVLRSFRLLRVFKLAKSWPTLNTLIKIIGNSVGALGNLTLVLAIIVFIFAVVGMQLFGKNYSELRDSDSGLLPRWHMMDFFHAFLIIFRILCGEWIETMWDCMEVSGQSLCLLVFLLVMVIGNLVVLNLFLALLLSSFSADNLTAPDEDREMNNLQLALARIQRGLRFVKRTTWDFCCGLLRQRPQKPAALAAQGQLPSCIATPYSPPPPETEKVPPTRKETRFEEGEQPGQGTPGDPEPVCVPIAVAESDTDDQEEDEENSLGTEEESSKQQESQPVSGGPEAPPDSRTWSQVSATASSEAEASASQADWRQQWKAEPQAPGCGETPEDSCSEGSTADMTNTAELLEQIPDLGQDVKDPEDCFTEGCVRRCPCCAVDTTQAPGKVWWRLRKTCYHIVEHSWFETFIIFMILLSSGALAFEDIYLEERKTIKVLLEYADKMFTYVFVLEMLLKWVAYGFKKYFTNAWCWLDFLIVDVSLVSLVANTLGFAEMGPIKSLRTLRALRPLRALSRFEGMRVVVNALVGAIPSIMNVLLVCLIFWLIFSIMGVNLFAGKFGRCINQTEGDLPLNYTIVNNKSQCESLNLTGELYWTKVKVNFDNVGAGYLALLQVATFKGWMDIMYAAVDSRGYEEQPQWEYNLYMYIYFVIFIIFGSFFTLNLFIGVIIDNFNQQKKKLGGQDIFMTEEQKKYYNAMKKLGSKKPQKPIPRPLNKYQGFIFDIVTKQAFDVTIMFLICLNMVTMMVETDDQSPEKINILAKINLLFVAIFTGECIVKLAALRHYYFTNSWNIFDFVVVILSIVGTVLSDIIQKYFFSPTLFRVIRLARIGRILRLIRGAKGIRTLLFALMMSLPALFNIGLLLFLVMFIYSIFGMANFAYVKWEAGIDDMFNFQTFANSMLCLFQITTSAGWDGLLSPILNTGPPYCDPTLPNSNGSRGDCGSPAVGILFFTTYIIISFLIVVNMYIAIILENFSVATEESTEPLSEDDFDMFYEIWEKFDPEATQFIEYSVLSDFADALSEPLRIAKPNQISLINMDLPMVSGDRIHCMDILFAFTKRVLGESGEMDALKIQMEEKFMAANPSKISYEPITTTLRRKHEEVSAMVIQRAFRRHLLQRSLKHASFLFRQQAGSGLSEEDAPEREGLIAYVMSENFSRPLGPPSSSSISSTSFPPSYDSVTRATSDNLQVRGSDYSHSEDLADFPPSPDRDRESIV
T1 sequence (Q15858 whole entry): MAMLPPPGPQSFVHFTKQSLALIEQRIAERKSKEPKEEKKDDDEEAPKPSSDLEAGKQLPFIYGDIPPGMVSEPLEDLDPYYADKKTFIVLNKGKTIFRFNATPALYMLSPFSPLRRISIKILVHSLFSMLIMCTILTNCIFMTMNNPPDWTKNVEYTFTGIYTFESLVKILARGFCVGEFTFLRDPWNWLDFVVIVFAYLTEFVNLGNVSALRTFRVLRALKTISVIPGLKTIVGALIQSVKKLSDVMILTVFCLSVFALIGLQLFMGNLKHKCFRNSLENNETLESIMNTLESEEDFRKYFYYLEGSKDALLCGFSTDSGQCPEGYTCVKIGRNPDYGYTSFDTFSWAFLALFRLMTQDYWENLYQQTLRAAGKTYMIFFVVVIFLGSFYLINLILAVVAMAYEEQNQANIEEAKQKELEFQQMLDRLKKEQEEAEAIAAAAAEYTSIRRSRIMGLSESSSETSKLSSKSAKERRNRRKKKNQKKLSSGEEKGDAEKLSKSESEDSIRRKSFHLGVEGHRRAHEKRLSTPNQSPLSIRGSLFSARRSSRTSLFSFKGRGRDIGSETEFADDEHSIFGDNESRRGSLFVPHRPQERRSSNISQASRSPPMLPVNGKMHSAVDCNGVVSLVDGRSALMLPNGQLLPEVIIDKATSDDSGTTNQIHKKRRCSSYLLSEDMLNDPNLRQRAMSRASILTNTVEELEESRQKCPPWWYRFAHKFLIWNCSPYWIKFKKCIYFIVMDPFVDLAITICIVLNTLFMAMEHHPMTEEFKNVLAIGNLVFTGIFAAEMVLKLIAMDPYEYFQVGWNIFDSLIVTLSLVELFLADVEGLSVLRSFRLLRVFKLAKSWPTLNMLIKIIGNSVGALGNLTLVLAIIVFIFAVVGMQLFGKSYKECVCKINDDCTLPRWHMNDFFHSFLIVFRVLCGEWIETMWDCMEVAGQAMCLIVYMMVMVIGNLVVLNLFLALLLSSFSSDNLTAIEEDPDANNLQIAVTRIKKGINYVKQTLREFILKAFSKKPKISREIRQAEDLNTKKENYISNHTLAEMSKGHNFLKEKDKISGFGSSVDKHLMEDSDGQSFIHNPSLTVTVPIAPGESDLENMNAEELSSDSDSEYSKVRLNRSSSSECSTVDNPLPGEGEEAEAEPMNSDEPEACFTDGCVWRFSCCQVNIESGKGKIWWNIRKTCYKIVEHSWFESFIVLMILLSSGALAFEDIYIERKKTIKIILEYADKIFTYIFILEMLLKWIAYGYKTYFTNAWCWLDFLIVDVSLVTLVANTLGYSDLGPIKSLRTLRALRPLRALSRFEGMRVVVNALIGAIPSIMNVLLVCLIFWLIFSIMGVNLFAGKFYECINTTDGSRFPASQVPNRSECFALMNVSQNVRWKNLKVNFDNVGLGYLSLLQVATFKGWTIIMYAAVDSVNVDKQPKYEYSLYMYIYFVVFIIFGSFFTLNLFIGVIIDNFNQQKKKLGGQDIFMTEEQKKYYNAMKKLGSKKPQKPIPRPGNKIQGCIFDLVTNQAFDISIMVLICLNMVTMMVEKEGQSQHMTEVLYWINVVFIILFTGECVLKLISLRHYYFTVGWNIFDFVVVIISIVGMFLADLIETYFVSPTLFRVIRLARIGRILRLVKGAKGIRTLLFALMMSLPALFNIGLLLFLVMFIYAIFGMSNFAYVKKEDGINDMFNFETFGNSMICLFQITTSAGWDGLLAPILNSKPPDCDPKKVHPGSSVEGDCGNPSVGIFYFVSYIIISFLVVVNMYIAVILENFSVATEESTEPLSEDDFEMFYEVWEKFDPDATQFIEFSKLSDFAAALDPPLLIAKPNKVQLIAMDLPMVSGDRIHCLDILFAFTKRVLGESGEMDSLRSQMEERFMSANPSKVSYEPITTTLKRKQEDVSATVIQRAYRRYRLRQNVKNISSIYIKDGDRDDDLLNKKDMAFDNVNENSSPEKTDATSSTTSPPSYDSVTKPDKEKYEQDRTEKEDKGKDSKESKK

With `O=S(=O)(Nc1nccs1)c1ccc2c(c1)OCCN2c1ccc(C(F)(F)F)c(Cl)c1` [Example 126, 4-(3-Chloro-4-(trifluoromethyl)phenyl)-N-(thiazol-2-yl)-3,4-dihydro-2H-benzo[b][1,4]oxazine-7-sulfonamide], the IC50 is greater than 10000 nM at Nav 1.5, 14200 nM on Nav 1.7 [1] and 1240 nM at Nav 1.7 [2].
With `N#Cc1cc(C(F)(F)F)ccc1N1CCOc2cc(S(=O)(=O)Nc3nccs3)c(Cl)cc21` [Example 212, 6-Chloro-4-(2-Cyano-4-(Trifluoromethyl)Phenyl)-N-(Thiazol-2-Yl)-3,4-Dihydro-2H-Benzo[B][1,4]Oxazine-7-Sulfonamide], the half-maximal inhibitory concentration (IC50) turned out to be 736 nM against Nav 1.5, 373 nM against Nav 1.7 [1] and 21.3 nM on Nav 1.7 [2].
For `Cc1cc(Cl)ccc1N1CCOc2cc(S(=O)(=O)Nc3nccs3)ccc21` [Example 195, 4-(4-Chloro-2-Methylphenyl)-N-(Thiazol-2-Yl)-3,4-Dihydro-2H-Benzo[B][1,4]Oxazine-7-Sulfonamide], in that order: greater than 10000 nM, 1100 nM and 233 nM.
As for `O=S(=O)(Nc1nccs1)c1ccc2c(c1)OCCN2c1ccc(C(F)(F)F)cc1CC(O)CO` (racemic) [Example 207, 4-(2-(2,3-Dihydroxypropyl)-4-(Trifluoromethyl)Phenyl)-N-(Thiazol-2-Yl)-3,4-Dihydro-2H-Benzo[B][1,4]Oxazine-7-Sulfonamide], the results for the half-inhibitory concentration (IC50) at Nav 1.5, on Nav 1.7 [1] and against Nav 1.7 [2] were 3110 nM, 86.7 nM and 25 nM, respectively.
For `CC(C)c1ccc(N2CCOc3cc(S(=O)(=O)Nc4nccs4)ccc32)c(C#N)c1` [Example 202, 4-(2-cyano-4-isopropylphenyl)-N-(thiazol-2-yl)-3,4-dihydro-2H-benzo[b][1,4]oxazine-7-sulfonamide], in that order: 686 nM, 428 nM and 93.5 nM.
For the molecule `O=S(=O)(Nc1ccccn1)c1ccc2c(c1)OCCN2c1ccc(C(F)(F)F)cc1C1=CCNCC1` [Example 62, N-(Pyridin-2-Yl)-4-(2-(1,2,3,6-Tetrahydropyridin-4-Yl)-4-(Trifluoromethyl)Phenyl)-3,4-Dihydro-2H-Benzo[B][1,4]Oxazine-7-Sulfonamide], the results for the IC50 at Nav 1.5, against Nav 1.7 [1] and against Nav 1.7 [2] were greater than 10000 nM, 282 nM and 49 nM, respectively.
For `O=S(=O)(Nc1ccncn1)c1ccc2c(c1)OCCN2c1ccc(C(F)(F)F)cc1Br` [Example 47, 4-(2-Bromo-4-(Trifluoromethyl)Phenyl)-N-(Pyrimidin-4-Yl)-3,4-Dihydro-2H-Benzo[B][1,4]Oxazine-7-Sulfonamide], in that order: 7930 nM, 303 nM and 14.5 nM.
For the molecule `COCCNc1cc(C(F)(F)F)ccc1N1CCOc2cc(S(=O)(=O)Nc3ccncn3)ccc21` [Example 48, 4-(2-((2-Methoxyethyl)Amino)-4-(Trifluoromethyl)Phenyl)-N-(Pyrimidin-4-Yl)-3,4-Dihydro-2H-Benzo[B][1,4]Oxazine-7-Sulfonamide], the 50% inhibitory concentration (IC50) is greater than 10000 nM against Nav 1.5, 719 nM against Nav 1.7 [1] and 28.5 nM against Nav 1.7 [2].
`N#Cc1cc(C(F)(F)F)ccc1N1CCOc2cc(S(=O)(=O)Nc3nccs3)cc(F)c21` [Example 218, 4-(2-Cyano-4-(Trifluoromethyl)Phenyl)-5-Fluoro-N-(Thiazol-2-Yl)-3,4-Dihydro-2H-Benzo[B][1,4]Oxazine-7-Sulfonamide]: the IC50 against Nav 1.5 amounted to 385 nM; against Nav 1.7 [1], 1990 nM; at Nav 1.7 [2] it was 193 nM.
In the same order, the values of `COc1cc(C#N)ccc1N1CC(C)Oc2cc(S(=O)(=O)Nc3nccs3)ccc21` (racemic) [Example 106, 4-(4-cyano-2-methoxyphenyl)-2-methyl-N-(thiazol-2-yl)-3,4-dihydro-2H-benzo[b][1,4]oxazine-7-sulfonamide] are greater than 10000 nM, 288 nM and 42.5 nM.
For `O=S(=O)(Nc1ncns1)c1ccc2c(c1)NCCN2c1ccc(C(F)(F)F)cc1Cl` [Example 18, 1-(2-Chloro-4-(Trifluoromethyl)Phenyl)-N-(1,2,4-Thiadiazol-5-Yl)-1,2,3,4-Tetrahydroquinoxaline-6-Sulfonamide], in that order: greater than 10000 nM, 946 nM and 1040 nM.
For `O=S(=O)(Nc1nccs1)c1ccc2c(c1)OCCN2c1ccc(Cl)cc1F` [Example 170, 4-(4-Chloro-2-Fluorophenyl)-N-(Thiazol-2-Yl)-3,4-Dihydro-2H-Benzo[B][1,4]Oxazine-7-Sulfonamide 2,2,2-Trifluoroacetate], the IC50 is greater than 10000 nM on Nav 1.5, 2620 nM against Nav 1.7 [1] and 401 nM on Nav 1.7 [2].
On to `N#Cc1cccc(Cl)c1N1CCOc2cc(S(=O)(=O)Nc3nccs3)ccc21` [Example 142, 4-(2-Chloro-6-cyanophenyl)-N-(thiazol-2-yl)-3,4-dihydro-2H-benzo[b][1,4]oxazine-7-sulfonamide], for which the IC50 was greater than 10000 nM at Nav 1.5 and 2210 nM on Nav 1.7 [2]. In addition, the inhibition at 4.9 µM on Nav 1.7 [1] (HEK293, values marked *, 4.9 μM, read-out: Nav 1.7 PX percent inhibition at 4.9 μM) came to 33.9%.
With `COc1cc(-c2cccc(F)c2)ccc1N1CCOc2cc(S(=O)(=O)Nc3nccs3)ccc21` [Example 201, 4-(3′-Fluoro-3-Methoxy-[1,1′-Biphenyl]-4-Yl)-N-(Thiazol-2-Yl)-3,4-Dihydro-2H-Benzo[B][1,4]Oxazine-7-Sulfonamide], the figures for the IC50 on Nav 1.5, at Nav 1.7 [1] and against Nav 1.7 [2] were 4830 nM, 773 nM and 143 nM, respectively.
For `Cc1ccc(C#N)c(N2CCOc3cc(S(=O)(=O)Nc4nccs4)ccc32)c1` [Example 194, 4-(2-Cyano-5-Methylphenyl)-N-(Thiazol-2-Yl)-3,4-Dihydro-2H-Benzo[B][1,4]Oxazine-7-Sulfonamide], the figures for the IC50 at Nav 1.5, against Nav 1.7 [1] and against Nav 1.7 [2] were 3590 nM, 1370 nM and 163 nM, respectively.
In the same order, the values of `O=S(=O)(Nc1nccs1)c1ccc2c(c1)OCCN2c1ccc2ncsc2c1` [Example 71, 4-(Benzo[D]Thiazol-6-Yl)-N-(Thiazol-2-Yl)-3,4-Dihydro-2H-Benzo[B][1,4]Oxazine-7-Sulfonamide 2,2,2-Trifluoroacetate] are greater than 10000 nM, 5320 nM and 605 nM.
Consider `O=S(=O)(Nc1nccs1)c1ccc2c(c1)OCCN2c1ccc(F)c(F)c1` [Example 84, 4-(3,4-Difluorophenyl)-N-(Thiazol-2-Yl)-3,4-Dihydro-2H-Benzo[B][1,4]Oxazine-7-Sulfonamide 2,2,2-Trifluoroacetate], for which the IC50 against Nav 1.5 was determined as 3810 nM; at Nav 1.7 [1] it was 3040 nM; on Nav 1.7 [2] it was 326 nM.
For `COc1ccc(C)nc1N1CCOc2cc(S(=O)(=O)Nc3nccs3)ccc21` [Example 109, 4-(3-methoxy-6-methyl-2-pyridinyl)-N-1,3-thiazol-2-yl-3,4-dihydro-2H-1,4-benzoxazine-7-sulfonamide], in that order: greater than 10000 nM, 1980 nM and 249 nM.
For the molecule `O=S(=O)(Nc1ncns1)c1ccc2c(c1)OCCN2c1ccccc1` [Example 30, 4-Phenyl-N-(1,2,4-Thiadiazol-5-Yl)-3,4-Dihydro-2H-Benzo[B][1,4]Oxazine-7-Sulfonamide], the IC50 against Nav 1.5 was greater than 10000 nM; against Nav 1.7 [1] it was 756 nM; against Nav 1.7 [2] it was 142 nM.

Source of the values: patent publication US9346798B2, “Dihydrobenzoxazine and tetrahydroquinoxaline sodium channel inhibitors” (AMGEN INC., priority 2012, dated 2016).
